In brackets after ≈: the same amount, converted by molar mass.

The test system of one test is Escherichia coli (ATCC 25922). Nature of the test: antimicrobial assay, growth inhibition of E. coli (OD 620 nm). It counts as cell-based. The conditions noted are these: Tables 1 and 2. The protocol:
(§1) Escherichia coli (ATCC 25922) was used as Gram-negative (-) and Staphylococcus aureus (ATCC 29213) as Gram-positive (+) bacteria. Bacteria were grown overnight (about 18 hours) at 37° C. in Mueller-Hinton (MH) broth. This culture was reinoculated and incubated at 37° C. to reach the exponential phase of bacteria growth; i.e., a final bacterial suspension containing about 10^5 to 5×10^5 colony-forming units (CFU)/ml. The concentration of cells was established by plating 100 μl of different dilutions of the culture solution (e.g., 10^-2, 10^-3 and 10^-4) onto solid agar plates. Following an overnight (about 18 hours) incubation at 37° C., the CFU thus formed were counted on each agar plate.
(§2) 96-Well tissue culture plates were utilized, with eight wells per plate containing only medium as control blanks, whereas eight other wells contained medium plus cells as a positive growth control. These controls were used to detect possible medium contamination and to provide a measure of uninhibited growth of the microorganisms.
(§3) For initial screening studies, oligopeptide sets were added to the bacterial suspension to reach a final concentration of 1 mg/ml.
(§4) The plates were incubated overnight (about 18 hours) at 37° C., and the optical density (OD) determined at 620 nm after different times of incubation.
Ac-FRWLLH-NH2 [FRWLLH] yielded an IC-50 of 17 µg/mL and an MIC of 20 to 40 µg/mL.
The like results for Ac-FRWLLV-NH2 [FRWLLV] were, in that order, 24 µg/mL and 40 to 80 µg/mL.
As for Ac-FRWWHF-NH2 [FRWWHF], the IC-50 turned out to be 30 µg/mL and the MIC was 31 to 62 µg/mL.
Compound Ac-FRWWHH-NH2 [FRWWHH] gave an IC-50 of 31 µg/mL and an MIC of 34 to 62 µg/mL.
For the compound Ac-FRWWHK-NH2 [FRWWHK], the IC-50 was 15 µg/mL and the MIC was in the range of 16 to 32 µg/mL.
Take Ac-FRWWHL-NH2 [FRWWHL]: the IC-50 stood at 31 µg/mL and the MIC fell in the range of 62 to 125 µg/mL.
In turn, Ac-FRWWHR-NH2 [FRWWHR] yielded an IC-50 of 13 µg/mL and an MIC of 16 to 32 µg/mL.
Ac-FRWWHW-NH2 [FRWWHW]: the IC-50 is 27 µg/mL and the MIC lay within 62 to 125 µg/mL.
In the case of Ac-RRWWMA-NH2 [RRWWMA], the IC-50 came to 18 µg/mL and the MIC fell in the range of 20 to 32 µg/mL.
For Ac-RRWWMC-NH2 [RRWWMC], the IC-50 is 12 µg/mL and the MIC lay in the range of 31 to 62 µg/mL.
The like results for Ac-RRWWMF-NH2 [RRWWMF] were, in that order, 18 µg/mL and 20 to 32 µg/mL.
For Ac-RRWWMG-NH2 [RRWWMG], the IC-50 was found to be 9 µg/mL and the MIC fell in the range of 10 to 16 µg/mL.
The compound Ac-RRWWMH-NH2 [RRWWMH] had an IC-50 of 24 µg/mL and an MIC of 31 to 62 µg/mL.
The corresponding values for Ac-RRWWMI-NH2 [RRWWMI] are 12 µg/mL and 16 to 32 µg/mL.
Consider Ac-RRWWMK-NH2 [RRWWMK], for which the IC-50 is 14 µg/mL and the MIC lay within 16 to 32 µg/mL.
With Ac-RRWWML-NH2 [RRWWML], the IC-50 is 15 µg/mL and the MIC was in the range of 16 to 32 µg/mL.
Ac-RRWWMM-NH2 [RRWWMM] displayed an IC-50 of 18 µg/mL and an MIC of 20 to 32 µg/mL.
The compound Ac-RRWWMN-NH2 [RRWWMN] displayed an IC-50 of 25 µg/mL and an MIC of 31 to 62 µg/mL.
Regarding Ac-RRWWMP-NH2 [RRWWMP], the IC-50 was 26 µg/mL and the MIC was 31 to 62 µg/mL.
Ac-RRWWMR-NH2 [RRWWMR] showed an IC-50 of 9 µg/mL and an MIC of 10 to 16 µg/mL.
The like results for Ac-RRWWMS-NH2 [RRWWMS] were, in that order, 17 µg/mL and 20 to 32 µg/mL.
Ac-RRWWMT-NH2 [RRWWMT] came in with an IC-50 of 18 µg/mL and an MIC of 20 to 32 µg/mL.
As for Ac-RRWWMV-NH2 [RRWWMV], the IC-50 was 15 µg/mL and the MIC lay within 16 to 32 µg/mL.
Ac-RRWWMW-NH2 [RRWWMW]: the IC-50 worked out at 15 µg/mL and the MIC lay within 16 to 32 µg/mL.
In turn, Ac-RRWWMY-NH2 [RRWWMY] registered an IC-50 of 15 µg/mL and an MIC of 16 to 32 µg/mL.

A further test has as its system Staphylococcus aureus (ATCC 29213). Put plainly: microbe, parasite or virus in culture. As to conditions: 7-mer studies, Tables 5 and 6 and parent 6-mer. The protocol:
as §1, §2, §3, §4
As to Ac-CRRWWRF-NH2 [CRRWWRF], the IC-50 worked out at 6.3 µg/mL and the MIC lay within 8 to 16 µg/mL.
Turning to Ac-FRRWWRF-NH2 [FRRWWRF], the IC-50 was 5.9 µg/mL and the MIC was 8 to 16 µg/mL.
The corresponding values for Ac-LRRWWRF-NH2 [LRRWWRF] are 6.1 µg/mL and 8 to 16 µg/mL.
The corresponding values for Ac-RRRWWRF-NH2 [RRRWWRF] are 8 µg/mL and 8 to 16 µg/mL.
Take “Ac-RRWWRF-NH2 [RRWWRF, Ac-Arg-Arg-Trp-Trp-Arg-PheNH2]”: the IC-50 turned out to be 8.7 µg/mL.
On to Ac-RRWWRFC-NH2 [RRWWRFC], for which the IC-50 is 6.2 µg/mL and the MIC lay in the range of 8 to 16 µg/mL.
With Ac-RRWWRFI-NH2 [RRWWRFI], the IC-50 was 6.9 µg/mL and the MIC is 8 to 16 µg/mL.
As to Ac-RRWWRFL-NH2 [RRWWRFL], the IC-50 came out at 5.9 µg/mL and the MIC was in the range of 8 to 16 µg/mL.
For the compound Ac-RRWWRFV-NH2 [RRWWRFV], the IC-50 turned out to be 7.9 µg/mL and the MIC lay in the range of 8 to 16 µg/mL.
The like results for Ac-RRWWRFY-NH2 [RRWWRFY] were, in that order, 7.6 µg/mL and 8 to 16 µg/mL.

The test is the same for the next values; noted with them: ATCC 29213, 18 h.
In turn, “Ac-RRWWCR-NH2 [RRWWCR, Ac-Arg-Arg-Trp-Trp-Cys-Arg-NH2]” had an MIC of 3.906 µg/mL.
In the case of “Ac-RRWWRF-NH2 [RRWWRF, Ac-Arg-Arg-Trp-Trp-Arg-PheNH2]”, the MIC fell in the range of 8 to 16 µg/mL.

Staying with this test, now noted: Staphylococcus aureus, ATCC29213.
Turning to `CC1(C)S[C@@H]2[C@H](NC(=O)[C@H](N)c3ccccc3)C(=O)N2[C@H]1C(=O)O` [Ampicillin, reference compound], the MIC is 4 µg/mL (≈ 11.4 µM).
As for `CC[C@H]1OC(=O)[C@H](C)[C@@H](O[C@H]2C[C@@](C)(OC)[C@@H](O)[C@H](C)O2)[C@H](C)[C@@H](O[C@@H]2O[C@H](C)C[C@H](N(C)C)[C@H]2O)[C@](C)(O)C[C@@H](C)C(=O)[C@H](C)[C@@H](O)[C@]1(C)O` [Erythromycin, reference compound], the MIC is 0.5 µg/mL (≈ 0.681 µM).
Compound `CN(C)[C@@H]1C(O)=C(C(N)=O)C(=O)[C@@]2(O)C(O)=C3C(=O)c4c(O)cccc4[C@@](C)(O)[C@H]3C[C@@H]12` [Tetracycline, reference compound] registered an MIC of 0.5 µg/mL (≈ 1.13 µM).

The same test, now with this note: Table 7, separate study.
For the compound `CC1(C)S[C@@H]2[C@H](NC(=O)Cc3ccccc3)C(=O)N2[C@H]1C(=O)O` [Penicillin G, reference compound], the MIC is 32 µg/mL (≈ 95.7 µM).
Bacitracin A [reference compound] yielded an MIC of 16 µg/mL.
Gentamicin C [reference compound]: the MIC is 0.5 µg/mL.
Neomycin [reference compound] displayed an MIC of 1 µg/mL.

The test is the same for the next values; noted with them: Tables 3 and 4.
The compound Ac-FRWLLC-NH2 [FRWLLC] had an IC-50 of 15 µg/mL and an MIC of 13 to 26 µg/mL.
Take Ac-FRWLLL-NH2 [FRWLLL]: the IC-50 was determined as 18 µg/mL and the MIC lay within 16 to 31 µg/mL.
Ac-FRWLLW-NH2 [FRWLLW] yielded an IC-50 of 14 µg/mL and an MIC of 12 to 24 µg/mL.
For the compound Ac-FRWWHF-NH2 [FRWWHF], the IC-50 was determined as 16 µg/mL and the MIC was 31 to 62 µg/mL.
In turn, Ac-FRWWHI-NH2 [FRWWHI] gave an IC-50 of 21 µg/mL and an MIC of 31 to 62 µg/mL.
The compound Ac-FRWWHK-NH2 [FRWWHK] registered an IC-50 of 30 µg/mL and an MIC of 31 to 62 µg/mL.
The like results for Ac-FRWWHL-NH2 [FRWWHL] were, in that order, 9.3 µg/mL and 16 to 32 µg/mL.
Consider Ac-FRWWHR-NH2 [FRWWHR], for which the IC-50 turned out to be 18 µg/mL and the MIC fell in the range of 16 to 32 µg/mL.
Ac-FRWWHW-NH2 [FRWWHW] yielded an IC-50 of 23 µg/mL and an MIC of 31 to 62 µg/mL.
The corresponding values for Ac-RRWWCS-NH2 [RRWWCS] are 5.9 µg/mL and 7 to 14 µg/mL.
Ac-RRWWCT-NH2 [RRWWCT]: the IC-50 amounted to 7.9 µg/mL and the MIC lay in the range of 4.9 to 10 µg/mL.
Ac-RRWWCV-NH2 [RRWWCV] had an IC-50 of 4.9 µg/mL and an MIC of 3.8 to 7.7 µg/mL.
The corresponding values for Ac-RRWWRA-NH2 [RRWWRA] are 14 µg/mL and 18 to 36 µg/mL.
In turn, Ac-RRWWRC-NH2 [RRWWRC] showed an IC-50 of 8.2 µg/mL and an MIC of 10 to 19 µg/mL.
The like results for “Ac-RRWWRF-NH2 [RRWWRF, Ac-Arg-Arg-Trp-Trp-Arg-PheNH2]” were, in that order, 5.5 µg/mL and 6 to 9 µg/mL.
Compound Ac-RRWWRI-NH2 [RRWWRI] had an IC-50 of 12 µg/mL and an MIC of 12 to 23 µg/mL.
As for Ac-RRWWRL-NH2 [RRWWRL], the IC-50 came out at 12 µg/mL and the MIC lay within 13 to 26 µg/mL.

A further test concerns Candida albicans ATCC 10231. Put plainly: antifungal assay, growth inhibition of C. albicans (OD 620 nm). The conditions noted are these: Candida albicans, ATCC10231; Table 9. The format is cell-based. The method, then: Antifungal studies were carried out Candida albicans ATCC 10231 as the target microbe. The yeast culture was spread onto YM agar plates and incubated at 30° C. for 48 hours. Three colonies of this culture (about 1 mm in diameter each) were then inoculated in 5 ml of 1 X PBS solution. The suspension was vortexed and diluted 10-fold in YM broth, for an approximate final concentration of 10^5 to 5×10^5 CFU (colony forming units)/ml.
Actual concentrations of yeast cultures were determined by plating 100 μl of different solutions of the culture solution (10^-3, 10^-4 and 10^-5) onto solid YM agar plates. After 48 hours of incubation at 30° C., CFU formed were counted from each plate.
The assays were carried out in 96-well tissue culture plates. Eight wells containing only medium of YM broth served as negative controls, whereas eight wells containing medium and yeast culture served as positive controls. These controls were used to detect possible medium contamination and to provide a measure of uninhibited growth of the yeast.
For screening studies, oligopeptide mixtures were added to the yeast suspension in duplicates to reach a final concentration of 1.5 mg/ml. […] The plates were incubated over a period of 48 hours at 30° C., and the optical density (OD) at 24 and 48 hours was determined at 620 nm.
Broadly, the IC50 is the concentration at which inhibition is half-maximal. The compound `C[C@@H]1[C@H](O)[C@@H](C)/C=C/C=C/C=C/C=C/C=C/C=C/C=C/[C@H](O[C@@H]2O[C@H](C)[C@@H](O)[C@H](N)[C@@H]2O)C[C@@H]2O[C@](O)(C[C@@H](O)C[C@@H](O)[C@H](O)CC[C@@H](O)C[C@@H](O)CC(=O)O[C@H]1C)C[C@H](O)[C@H]2C(=O)O` [Amphotericin B, reference compound] came in with a half-inhibitory concentration (IC50) of 0.5 µg/mL (≈ 0.541 µM).

Still in this test, the particulars now being: Candida albicans, ATCC10231; Table 9; read-out: MIC.
As to `C[C@@H]1[C@H](O)[C@@H](C)/C=C/C=C/C=C/C=C/C=C/C=C/C=C/[C@H](O[C@@H]2O[C@H](C)[C@@H](O)[C@H](N)[C@@H]2O)C[C@@H]2O[C@](O)(C[C@@H](O)C[C@@H](O)[C@H](O)CC[C@@H](O)C[C@@H](O)CC(=O)O[C@H]1C)C[C@H](O)[C@H]2C(=O)O` [Amphotericin B, reference compound], the MIC lay within 2 to 4 µg/mL (≈ 2.16 to 4.33 µM).

The record behind these values is patent US5504190A, “Equimolar multiple oligomer mixtures, especially oligopeptide mixtures” (priority 1994, dated 1996).
